# Earlier results, collected in patent publication US20040147564A1, “Combinations of glimepiride and the thiazolidinedione for treatment of diabetes” (priority 2003, published 2004).
# Key:
# [1] = not given; remark: listed apart in the source
# [2] = not given; remark: listed apart in the source
Solubility in buffered aqueous solution (pH of 2.3),Elimination half-life ([1]; at steady state after oral administration),Terminal half-life ([1]; in vivo),Solubility in water (at 25° C.),SMILES,"Reduction of absolute HbA1c levels ([2]; human, in vivo)",Increase of plasma insulin levels ([2]; patients with type 2 diabetes)
readily soluble,–,–,–,"CN(CCOc1ccc(CC2SC(=O)NC2=O)cc1)c1ccccn1 (stereo not drawn) [Rosiglitazone, rosiglitazone]",–,–
–,5 to 8 h,more than 5 hours,≤ 100 µg/mL,"CCC1=C(C)CN(C(=O)NCCc2ccc(S(=O)(=O)NC(=O)N[C@H]3CC[C@H](C)CC3)cc2)C1=O [glimepiride, 1-[[p-[2-(3-ethyl-4-methyl-2-oxo-3-pyrroline-1-carboxamido)ethyl]phenyl]sulfonyl]-3-(trans-4-methylcyclohexyl)urea]",1-2%,≤ 50%
